The values below come from paper PMC10944877, “Identification of dihydromyricetin as a natural DNA methylation inhibitor with rejuvenating activity in human skin” (Frontiers in Aging, 2024).

Assay [1] has as its target T1, DNMT1 (Homo sapiens, UniProt P26358). As to the kind of experiment: biochemical DNMT activity quantification kit (Abcam), three […] pure preparations, n = […].
The target of assay [2] is T1, DNMT1. As to the kind of experiment: scintillation proximity methylation assay (SPA) screen with purified DNMT1; IC50 in Supplementary Figure S1A. It counts as biochemical. Also on record: full-length recombinant human DNMT1.

T1 sequence (P26358 whole entry): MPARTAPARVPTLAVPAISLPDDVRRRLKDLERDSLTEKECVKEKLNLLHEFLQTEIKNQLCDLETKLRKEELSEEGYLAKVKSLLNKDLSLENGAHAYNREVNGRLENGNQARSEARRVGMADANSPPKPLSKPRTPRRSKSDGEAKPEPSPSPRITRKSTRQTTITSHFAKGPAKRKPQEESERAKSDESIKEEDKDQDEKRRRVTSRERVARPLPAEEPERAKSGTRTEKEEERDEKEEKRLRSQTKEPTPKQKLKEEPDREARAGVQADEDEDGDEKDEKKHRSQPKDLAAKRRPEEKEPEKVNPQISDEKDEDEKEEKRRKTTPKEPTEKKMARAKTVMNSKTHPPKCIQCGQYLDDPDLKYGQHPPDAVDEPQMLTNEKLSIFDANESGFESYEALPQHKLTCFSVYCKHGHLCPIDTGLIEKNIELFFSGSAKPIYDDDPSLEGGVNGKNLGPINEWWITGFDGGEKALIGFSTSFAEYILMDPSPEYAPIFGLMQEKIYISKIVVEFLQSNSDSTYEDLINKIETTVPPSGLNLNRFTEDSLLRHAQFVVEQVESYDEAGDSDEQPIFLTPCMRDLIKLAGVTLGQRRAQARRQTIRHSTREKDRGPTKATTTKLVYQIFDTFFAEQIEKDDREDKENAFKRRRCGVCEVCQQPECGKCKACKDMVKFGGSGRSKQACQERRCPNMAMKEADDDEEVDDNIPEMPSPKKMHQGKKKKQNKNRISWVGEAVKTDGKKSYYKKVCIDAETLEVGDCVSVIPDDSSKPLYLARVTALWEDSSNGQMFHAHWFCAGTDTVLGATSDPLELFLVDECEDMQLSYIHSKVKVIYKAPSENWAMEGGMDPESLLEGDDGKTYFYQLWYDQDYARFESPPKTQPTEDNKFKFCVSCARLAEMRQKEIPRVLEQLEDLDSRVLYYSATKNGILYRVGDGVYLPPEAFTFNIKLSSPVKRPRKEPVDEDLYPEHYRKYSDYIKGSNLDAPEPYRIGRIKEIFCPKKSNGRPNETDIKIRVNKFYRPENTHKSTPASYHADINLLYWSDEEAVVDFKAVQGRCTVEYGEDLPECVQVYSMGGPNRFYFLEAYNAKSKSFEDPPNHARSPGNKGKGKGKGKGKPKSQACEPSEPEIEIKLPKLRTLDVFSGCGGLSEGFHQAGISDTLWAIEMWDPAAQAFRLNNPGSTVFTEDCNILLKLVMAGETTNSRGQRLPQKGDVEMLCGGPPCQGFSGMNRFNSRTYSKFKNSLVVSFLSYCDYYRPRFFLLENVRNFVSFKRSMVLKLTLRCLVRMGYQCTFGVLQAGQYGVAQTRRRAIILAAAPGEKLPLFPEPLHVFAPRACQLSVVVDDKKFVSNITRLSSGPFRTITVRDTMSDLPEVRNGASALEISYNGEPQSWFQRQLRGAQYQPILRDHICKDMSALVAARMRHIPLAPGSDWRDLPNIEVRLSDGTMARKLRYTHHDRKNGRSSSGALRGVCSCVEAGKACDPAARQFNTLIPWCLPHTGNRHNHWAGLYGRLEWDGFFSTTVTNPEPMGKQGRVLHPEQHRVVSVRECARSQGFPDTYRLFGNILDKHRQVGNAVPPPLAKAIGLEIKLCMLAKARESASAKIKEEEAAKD

Consider `O=C1c2c(O)cc(O)cc2O[C@H](c2cc(O)c(O)c(O)c2)[C@H]1O` [DHM, 3,3′,4′,5,5’,7-hexahydroxy-2,3-dihydroflavanonol], for which the “biochemical DNMT activity quantification kit (Abcam), three >95% pure preparatio” value at DNMT1 [1] is given as “DNMT1 inhibitory activity for DHM in the similar concentration range like myricetin (Figure 1D; Supplementary Figure S1B)”. Take `O=c1c(O)c(-c2cc(O)c(O)c(O)c2)oc2cc(O)cc(O)c12` [Myr, myricetin]: at DNMT1 [2], the IC50 turned out to be 43.4 µM.
